This is an account of results in PubChem BioAssay (NCI).

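Each compound was tested at five concentrations against cells in 96-well plates for 48 hours. Abbreviation: GI50, concentration required for 50% inhibition of growth. TGI denotes the concentration required for complete inhibition of growth.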

Some test systems named below: DLD-1 colon; HOP-92 NSCLC; MALME-3M melanoma; MOLT-4 leukemia; RPMI-8226 leukemia; SNB-78 CNS; UO-31 renal; NCI-H522 lung; BT-549 breast; MCF7 breast.
What all share (assay): growth of human tumour cells (NCI), 48 h

Consider `CC(=O)Oc1cc2c(cc1OC(C)=O)C1(C)CCC2(C)c2cc(OC(C)=O)c(OC(C)=O)cc21`, for which the TGI in the assay with DLD-1 colon is over 100 µM; with HOP-92 NSCLC, 38.2 µM; in the assay on MALME-3M melanoma, over 100 µM; in the assay with MOLT-4 leukemia, 96.1 µM; with RPMI-8226 leukemia it was 50.3 µM; with SNB-78 CNS, over 100 µM. Also, the TGI in the assay on UO-31 renal was 89.1 µM.
Turning to `COC(=O)C(=O)CC(=O)CCn1[nH]c(=O)c(Cl)c(Cl)c1=O`, the TGI in the assay on DLD-1 colon, with HOP-92 NSCLC, in the assay on MALME-3M melanoma, in the assay with NCI-H522 lung, with SNB-78 CNS and with UO-31 renal was over 100 µM throughout.
Take `CCC[CH2][Sn]([CH2]CCC)([O]C(=O)CN)[O]C(=O)CN`: the GI50 in the assay on DLD-1 colon is 92.7 µM; with HOP-92 NSCLC it was 73.2 µM; with MALME-3M melanoma, 6.1 µM; in the assay on MOLT-4 leukemia it was 29.1 µM; with NCI-H522 lung, 11.6 µM; in the assay on RPMI-8226 leukemia, 15.3 µM. Further, the GI50 in the assay on SNB-78 CNS was 21.6 µM; in the assay on UO-31 renal, over 100 µM. Also, the TGI is over 100 µM in the assay on DLD-1 colon; over 100 µM with HOP-92 NSCLC; 41.2 µM in the assay on MALME-3M melanoma; over 100 µM with MOLT-4 leukemia; 38 µM in the assay on NCI-H522 lung; 54.5 µM in the assay on RPMI-8226 leukemia. In addition, the results for the TGI with SNB-78 CNS and with UO-31 renal were 72 µM and over 100 µM, respectively.
In the case of `O=C(Nc1ccc(Cl)cc1)C1C(=O)C(=O)N(c2ccc(Cl)cc2)C1=O` (stereo unspecified), the TGI was over 100 µM in the assay with DLD-1 colon; 69.3 µM in the assay with HOP-92 NSCLC; over 100 µM in the assay with MALME-3M melanoma; over 100 µM in the assay with MOLT-4 leukemia; over 100 µM in the assay on NCI-H522 lung; over 100 µM with RPMI-8226 leukemia. Also, the TGI in the assay on SNB-78 CNS and in the assay with UO-31 renal was over 100 µM each time.
Consider `Cc1ccc(S(=O)(=O)N/N=C2\CCCCC23CCC(=O)NC3)cc1` (stereo unspecified), for which the TGI in the assay with DLD-1 colon, in the assay with MALME-3M melanoma, in the assay on MOLT-4 leukemia, with NCI-H522 lung, with RPMI-8226 leukemia and with SNB-78 CNS was over 100 µM each time. The compound further returned a TGI in the assay on UO-31 renal of over 100 µM.
In the case of `N#C/C(=C/c1cccc(Oc2ccccc2)c1)c1ccccc1`, the TGI with DLD-1 colon, in the assay on HOP-92 NSCLC, with MALME-3M melanoma, with MOLT-4 leukemia, in the assay with NCI-H522 lung and in the assay on RPMI-8226 leukemia was over 100 µM each time. For the same compound, the TGI in the assay on SNB-78 CNS and in the assay with UO-31 renal was over 100 µM throughout.
`N[C@H](C(=O)O)[C@@H]1CC(Cl)=NO1`: the GI50 in the assay on BT-549 breast is 7.4 µM; with MCF7 breast it was 4.77 µM; with MOLT-4 leukemia, 5.21 µM; in the assay with RPMI-8226 leukemia, 11.1 µM; in the assay with UO-31 renal, 26.6 µM. Further, the TGI was over 1000 µM with BT-549 breast; over 1000 µM in the assay on DLD-1 colon; 541 µM with HOP-92 NSCLC; 542 µM in the assay on MALME-3M melanoma; 325 µM in the assay with MCF7 breast; over 806 µM in the assay with MOLT-4 leukemia. Further, the TGI in the assay with NCI-H522 lung is 271 µM; in the assay on RPMI-8226 leukemia it was 811 µM; in the assay with SNB-78 CNS, over 978 µM; in the assay with UO-31 renal, 772 µM.
Turning to `NC1=NN(c2ccccc2)C(=O)C1C(=O)CCC(=O)Nc1cccc(Cl)c1` (stereo unspecified), the TGI with DLD-1 colon, with HOP-92 NSCLC, in the assay with MALME-3M melanoma, in the assay on NCI-H522 lung, in the assay on SNB-78 CNS and with UO-31 renal was over 100 µM throughout.
As to `Cc1ccc(S(=O)(=O)OC2CC=CC2)cc1`, the TGI with DLD-1 colon, in the assay on HOP-92 NSCLC, in the assay with MALME-3M melanoma, with MOLT-4 leukemia, with RPMI-8226 leukemia and in the assay on SNB-78 CNS was over 100 µM throughout. Moreover, the TGI in the assay on UO-31 renal was over 100 µM.
On to `COc1ccc(C=O)cc1O[Si](C)(C)C(C)(C)C`, for which the TGI with DLD-1 colon, in the assay on HOP-92 NSCLC, with MALME-3M melanoma, with MOLT-4 leukemia, in the assay with RPMI-8226 leukemia and in the assay with SNB-78 CNS was over 100 µM in each case. Also, the TGI with UO-31 renal was over 100 µM.
Take `N#CCC(=O)N/N=C1/C(=O)N(c2ccc(Cl)cc2)C(=O)C(=O)C1c1nc2ccccc2s1` (stereo unspecified): the TGI with DLD-1 colon, with HOP-92 NSCLC, in the assay on MALME-3M melanoma, with NCI-H522 lung, in the assay on SNB-78 CNS and in the assay on UO-31 renal was over 100 µM in each case.
For the compound `CN(C)CCC(=O)N1C/C(=C\c2ccc(Cl)c(Cl)c2)C(=O)/C(=C/c2ccc(Cl)c(Cl)c2)C1`, the TGI worked out at 1.7 µM with BT-549 breast; 0.468 µM with DLD-1 colon; 0.977 µM in the assay with HOP-92 NSCLC; 1.51 µM with MALME-3M melanoma; 0.701 µM in the assay on MCF7 breast; 1.7 µM with MOLT-4 leukemia. Moreover, the TGI with NCI-H522 lung was 0.455 µM; with RPMI-8226 leukemia, 0.485 µM; in the assay on SNB-78 CNS, 1.66 µM; in the assay with UO-31 renal it was 0.862 µM.
`C[C@]12CC=CC(=O)[C@@]1(C)CCC(=O)C2`: the TGI in the assay on DLD-1 colon, in the assay on HOP-92 NSCLC, with MALME-3M melanoma, in the assay on MOLT-4 leukemia, in the assay on NCI-H522 lung and with SNB-78 CNS was over 100 µM throughout. This compound also displayed a TGI with UO-31 renal of over 100 µM.
As for `O=C1N/C(=C\[N+](=O)[O-])c2ccccc21`, the TGI with DLD-1 colon, in the assay with HOP-92 NSCLC, in the assay with MALME-3M melanoma, in the assay on MOLT-4 leukemia, in the assay on NCI-H522 lung and with RPMI-8226 leukemia was over 100 µM in each case. Moreover, the TGI in the assay on SNB-78 CNS and in the assay with UO-31 renal was over 100 µM in each case.
Take `O=C(Nc1cccc(O)c1)C(=O)C1C(=O)NC(=S)NC1=O`: the TGI with DLD-1 colon, with HOP-92 NSCLC, in the assay on MALME-3M melanoma, in the assay on MOLT-4 leukemia, in the assay with NCI-H522 lung and with RPMI-8226 leukemia was over 100 µM throughout. The TGI in the assay on SNB-78 CNS and with UO-31 renal was over 100 µM each time.
In the case of `CC1(O)C(C)(O)C2(C)O[Te]3(OC12C)OC1(C)C(C)(O)C(C)(O)C1(C)O3` (stereo unspecified), the TGI was over 100 µM in the assay on DLD-1 colon; 49.2 µM with HOP-92 NSCLC; over 100 µM in the assay with MALME-3M melanoma; 34.5 µM in the assay with MOLT-4 leukemia; 42.2 µM in the assay on NCI-H522 lung; 37.9 µM in the assay with RPMI-8226 leukemia. For the same compound, the TGI was over 100 µM with SNB-78 CNS and 87.5 µM in the assay with UO-31 renal.
On to `NC(CCCC(N)P(=O)(O)O)P(=O)(O)O` (stereo unspecified), for which the TGI in the assay on DLD-1 colon, with HOP-92 NSCLC, with MALME-3M melanoma, in the assay with MOLT-4 leukemia, in the assay with NCI-H522 lung and in the assay with RPMI-8226 leukemia was over 100 µM throughout. The TGI in the assay with SNB-78 CNS and with UO-31 renal was over 100 µM throughout.
Turning to `COc1cc(NCC(C#N)C#N)ccc1N=Nc1ccc(Cl)cc1`, the TGI in the assay on DLD-1 colon worked out at 85.4 µM; with MALME-3M melanoma, 71.4 µM; with MOLT-4 leukemia, 39.8 µM; in the assay with NCI-H522 lung, 31.9 µM; in the assay on RPMI-8226 leukemia, 92.3 µM; in the assay with SNB-78 CNS, 98.8 µM. Also, the TGI in the assay with UO-31 renal turned out to be 52.5 µM.
As to `O=C(Nc1ccc(C(F)(F)F)cc1[N+](=O)[O-])C(=O)C1NC(=S)NC1=O` (stereo unspecified), the TGI in the assay on DLD-1 colon, with HOP-92 NSCLC, with MALME-3M melanoma, in the assay with MOLT-4 leukemia, in the assay with NCI-H522 lung and in the assay on RPMI-8226 leukemia was over 100 µM throughout. The TGI in the assay with SNB-78 CNS and in the assay on UO-31 renal was over 100 µM throughout.
Consider `Nc1ncnc2c1ncn2C1C=C(CO)C(O)C1O` (stereo unspecified), for which the TGI in the assay on BT-549 breast was over 100 µM; in the assay with DLD-1 colon, over 100 µM; with HOP-92 NSCLC, over 76.1 µM; in the assay with MALME-3M melanoma, over 100 µM; in the assay with MCF7 breast, over 100 µM; with MOLT-4 leukemia, 30.9 µM. Besides, the TGI with NCI-H522 lung is 35.6 µM; with RPMI-8226 leukemia, over 37 µM; with SNB-78 CNS, over 100 µM; in the assay on UO-31 renal it was 19.9 µM.
Take `O=S(=O)(C1=CC(S(=O)(=O)c2ccccc2)CN(Cc2ccccc2)C1c1cccc2ccccc12)c1ccccc1` (stereo unspecified): the TGI in the assay on DLD-1 colon, in the assay on HOP-92 NSCLC, in the assay on MALME-3M melanoma, in the assay on MOLT-4 leukemia, in the assay with NCI-H522 lung and in the assay with RPMI-8226 leukemia was over 69 µM in each case. In addition, the TGI in the assay on SNB-78 CNS and in the assay on UO-31 renal was over 69 µM each time.
As for `CCCC1(CC(=O)O)OCCc2c1[nH]c1ccccc21` (stereo unspecified), the TGI in the assay with DLD-1 colon, in the assay on HOP-92 NSCLC, in the assay with MALME-3M melanoma, in the assay on MOLT-4 leukemia, in the assay with RPMI-8226 leukemia and in the assay on SNB-78 CNS was over 100 µM throughout. The compound further gave a TGI in the assay on UO-31 renal of over 100 µM.
Turning to `O=C(NC(=O)c1c(F)cccc1F)Nc1cccc(Oc2ncc(Cl)cn2)c1`, the TGI was over 100 µM in the assay with BT-549 breast; over 100 µM with DLD-1 colon; 70.9 µM in the assay on HOP-92 NSCLC; over 100 µM in the assay on MALME-3M melanoma; over 100 µM in the assay with MCF7 breast; over 100 µM in the assay on MOLT-4 leukemia. The TGI in the assay on NCI-H522 lung, in the assay on RPMI-8226 leukemia, in the assay with SNB-78 CNS and with UO-31 renal was over 100 µM throughout.
`CC(=O)Oc1c(C)c(-c2ccccc2)c(C)c(-c2ccccc2)c1C(=S)c1ccccc1`: the TGI in the assay with DLD-1 colon, with HOP-92 NSCLC, in the assay with MALME-3M melanoma, in the assay with MOLT-4 leukemia, in the assay on NCI-H522 lung and in the assay with RPMI-8226 leukemia was over 100 µM throughout. Besides, the TGI in the assay on SNB-78 CNS and with UO-31 renal was over 100 µM throughout.
In the case of `CCOC(=O)[CH-]C(=O)C12CC3CC(CC(C3)C1)C2.CCOC(=O)[CH-]C(=O)C12CC3CC(CC(C3)C1)C2.CC[O-].CC[O-].[Ti+4]`, the GI50 in the assay on DLD-1 colon, in the assay on HOP-92 NSCLC, with MALME-3M melanoma, in the assay with MOLT-4 leukemia, with NCI-H522 lung and with RPMI-8226 leukemia was over 100 µM in each case. Moreover, the GI50 in the assay with SNB-78 CNS and with UO-31 renal was over 100 µM throughout. The TGI with DLD-1 colon, in the assay on HOP-92 NSCLC, in the assay on MALME-3M melanoma, in the assay with MOLT-4 leukemia, with NCI-H522 lung and with RPMI-8226 leukemia was over 100 µM in each case. The TGI with SNB-78 CNS and with UO-31 renal was over 100 µM throughout.
